target: T1, PFKM 6-phosphofructokinase, muscle type (Homo sapiens, UniProt P08237); test: competitive isoTOP-ABPP; assay type: binding; conditions: 50 uM, 231 sol, in vitro
T1 construct: isoTOP-ABPP experiments performed in cell lysates (in vitro); endogenous in cells; host or cells: MDA-MB-231 soluble lysate
T1 sequence (P08237 1-780): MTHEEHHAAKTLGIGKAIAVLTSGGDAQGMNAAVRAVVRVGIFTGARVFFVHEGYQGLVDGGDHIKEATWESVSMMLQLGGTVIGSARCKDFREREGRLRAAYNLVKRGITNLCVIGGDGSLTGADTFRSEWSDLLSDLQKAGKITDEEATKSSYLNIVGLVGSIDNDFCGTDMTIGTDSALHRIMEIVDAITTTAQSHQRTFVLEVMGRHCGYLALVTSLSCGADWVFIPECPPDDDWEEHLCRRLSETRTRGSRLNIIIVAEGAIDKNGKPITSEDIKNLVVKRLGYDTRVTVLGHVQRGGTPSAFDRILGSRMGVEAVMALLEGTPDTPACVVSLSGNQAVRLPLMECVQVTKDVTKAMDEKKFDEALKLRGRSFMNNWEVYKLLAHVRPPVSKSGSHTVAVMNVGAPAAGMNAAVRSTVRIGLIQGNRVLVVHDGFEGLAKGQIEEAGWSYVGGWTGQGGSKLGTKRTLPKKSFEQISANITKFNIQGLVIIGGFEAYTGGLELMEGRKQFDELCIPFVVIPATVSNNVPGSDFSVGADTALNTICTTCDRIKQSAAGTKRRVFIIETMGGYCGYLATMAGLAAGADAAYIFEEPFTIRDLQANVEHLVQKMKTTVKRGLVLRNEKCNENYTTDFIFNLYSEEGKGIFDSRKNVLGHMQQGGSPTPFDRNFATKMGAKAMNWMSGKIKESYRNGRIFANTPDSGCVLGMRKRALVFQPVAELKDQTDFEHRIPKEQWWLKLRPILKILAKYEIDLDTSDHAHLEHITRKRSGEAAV
In short: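 Probe: STP-alkyne, 0.1 mM, 1 h RT, after fragment pretreatment of lysate (esters 50 μM; guanidinylators 100 μM). Tags: light = compound, heavy = DMSO, via CuAAC. Replicates averaged if SD <60% of mean; otherwise lowest ratio used when any R <4.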

SMILES | isoTOP-ABPP reactivity ratio at lysine P08237_K678
O=C(CCc1cn(-c2ccccc2)nc1-c1ccccc1)Oc1ccc([N+](=O)[O-])cc1[N+](=O)[O-] [fragment 29, 2,4-Dinitrophenyl 3-(1,3-diphenyl-1H-pyrazol-4-yl)propanoate] | 1.8
O=C(CCc1coc2cc(F)ccc2c1=O)Oc1c(F)c(F)c(F)c(F)c1F [fragment 26, Pentafluorophenyl 3-(7-fluoro-4-oxo-4H-chromen-3-yl)propanoate] | 1.4
O=C(CN1C(=O)c2ccccc2C1=O)Oc1c(F)c(F)c(F)c(F)c1F [fragment 27, Pentafluorophenyl 2-(1,3-dioxoisoindolin-2-yl)acetate] | 2.6
Cn1cc(CC(=O)Oc2ccc([N+](=O)[O-])cc2[N+](=O)[O-])c2ccccc21 [fragment 32, 2,4-Dinitrophenyl 2-(1-methyl-1H-indol-3-yl)acetate] | 15.4
O=C(Oc1c(F)c(F)c(F)c(F)c1F)C1CCN(C(=O)OCc2ccccc2)CC1 [fragment 24, 1-Benzyl 4-(pentafluorophenyl) piperidine-1,4-dicarboxylate] | 1.1
O=C(Oc1c(F)c(F)c(F)c(F)c1F)c1ccc2ccccc2n1 [fragment 25, Pentafluorophenyl quinoline-2-carboxylate] | 1.3
O=C(Oc1ccc([N+](=O)[O-])cc1[N+](=O)[O-])c1cc(C(F)(F)F)cc(C(F)(F)F)c1 [fragment 31, 2,4-Dinitrophenyl 3,5-bis(trifluoromethyl)benzoate] | 1.1
O=C(Oc1ccc([N+](=O)[O-])cc1[N+](=O)[O-])C(c1ccccc1)c1ccccc1 [fragment 30, 2,4-Dinitrophenyl 2,2-diphenylacetate] | 20.0
COc1cc(CCC(=O)Oc2ccc([N+](=O)[O-])cc2[N+](=O)[O-])cc(OC)c1OC [fragment 33, 2,4-Dinitrophenyl 3-(3,4,5-trimethoxyphenyl)propanoate] | 4.0
CCn1cc(C(=O)Oc2c(F)c(F)c(F)c(F)c2F)c(=O)c2ccc(C)nc21 [fragment 28, Pentafluorophenyl 1-ethyl-7-methyl-4-oxo-1,4-dihydro-1,8-naphthyridine-3-carboxylate] | 1.3

same assay, conditions: 50 uM, in vitro, sol, 231

SMILES | isoTOP-ABPP ratio (R) at liganded lysine P08237_K678
O=C(Oc1ccc([N+](=O)[O-])cc1[N+](=O)[O-])C(c1ccccc1)(c1ccccc1)c1ccccc1 [fragment 42, 2,4-Dinitrophenyl 2,2,2-triphenylacetate] | 0.9
CC(C)(C)OC(=O)NCCCC(=O)Oc1ccc([N+](=O)[O-])cc1[N+](=O)[O-] [fragment 41, 2,4-Dinitrophenyl 4-((tert-butoxycarbonyl)amino)butanoate] | 2.0
O=C(Oc1ccc([N+](=O)[O-])cc1[N+](=O)[O-])C1CCN(C(=O)OCc2ccccc2)CC1 [fragment 34, 1-Benzyl 4-(2,4-dinitrophenyl) piperidine-1,4-dicarboxylate] | 1.1
O=C(CCc1coc2cc(F)ccc2c1=O)Oc1ccc([N+](=O)[O-])cc1[N+](=O)[O-] [fragment 36, 2,4-Dinitrophenyl 3-(7-fluoro-4-oxo-4H-chromen-3-yl)propanoate] | 5.3
O=C(CC12CC3CC(CC(C3)C1)C2)Oc1ccc([N+](=O)[O-])cc1[N+](=O)[O-] [fragment 38, 2,4-Dinitrophenyl 2-(adamantan-1-yl)acetate] | 1.0
O=C(Oc1ccc([N+](=O)[O-])cc1[N+](=O)[O-])c1ccc2ccccc2n1 [fragment 35, 2,4-Dinitrophenyl quinoline-2-carboxylate] | 1.2
O=C(Oc1ccc([N+](=O)[O-])cc1[N+](=O)[O-])c1ccccc1Nc1cccc(C(F)(F)F)c1 [fragment 40, 2,4-Dinitrophenyl 2-((3-(trifluoromethyl)phenyl)amino)benzoate] | 0.9
O=C(Oc1ccc([N+](=O)[O-])cc1[N+](=O)[O-])c1ccc(Oc2ccccc2)cc1 [fragment 39, 2,4-Dinitrophenyl 4-phenoxybenzoate] | 1.0
O=C(Oc1ccc([N+](=O)[O-])cc1[N+](=O)[O-])c1ccc(-c2ccccc2)cc1 [fragment 37, 2,4-Dinitrophenyl [1,1′-biphenyl]-4-carboxylate] | 1.0
CC(=O)Oc1ccc([N+](=O)[O-])cc1[N+](=O)[O-] [fragment 43, 2,4-Dinitrophenyl acetate] | 1.3

same assay, conditions: 50 uM_231_sol_in vitro

SMILES | isoTOP-ABPP ratio, lysine P08237_K678
O=C(Oc1c(F)c(F)cc(F)c1F)c1cc(C(F)(F)F)cc(C(F)(F)F)c1 [fragment 48, 2,3,5,6-Tetrafluorophenyl 3,5-bis(trifluoromethyl)benzoate] | 0.9
O=C(Oc1c(F)c(F)c(C(F)(F)F)c(F)c1F)c1cc(C(F)(F)F)cc(C(F)(F)F)c1 [fragment 47, 2,3,5,6-Tetrafluoro-4-(trifluoromethyl)phenyl 3,5-bis(trifluoromethyl)benzoate] | 0.8
NC(=O)c1cc(C(F)(F)F)cc(C(F)(F)F)c1 [fragment 51, reference compound] | 0.8
O=C(CCc1ccc2c(c1)OCO2)Oc1ccc([N+](=O)[O-])cc1[N+](=O)[O-] [fragment 45, 2,4-Dinitrophenyl 3-(benzo[d][1,3]dioxol-5-yl)propanoate] | 4.8
N#Cc1ccc(C(=O)Oc2ccc([N+](=O)[O-])cc2[N+](=O)[O-])cc1 [fragment 44, 2,4-Dinitrophenyl 4-cyanobenzoate] | 1.9
O=C(ON1C(=O)CCC1=O)c1cc(C(F)(F)F)cc(C(F)(F)F)c1 [fragment 46, 3,5-Bis(trifluoromethyl)benzoic acid NHS ester] | 1.3

same assay, conditions: 100 uM_231_sol_in vitro

isoTOP-ABPP ratio, lysine P08237_K678 | SMILES
5.4 | COC(=O)NC(=NC(=O)OCC1c2ccccc2-c2ccccc21)n1cccn1 [fragment 49, N-Methoxycarbonyl-N′-9-fluorenylmethoxycarbonyl-pyrazole-1-carboxamidine]
20.0 | CC(C)(C)OC(=O)N=C(NC(=O)OC(C)(C)C)n1cccn1 [fragment 50, reference compound]

same assay, conditions: P08237_K678; 50 uM, 231 sol, in vitro

R value (DMSO/fragment) for probe 1 labeling | SMILES
1.0 | O=C(CCc1cn(-c2ccccc2)nc1-c1ccccc1)Oc1c(F)c(F)c(F)c(F)c1F [fragment 19, Pentafluorophenyl 3-(1,3-diphenyl-1H-pyrazol-4-yl)propanoate]
0.9 | O=C(Oc1c(F)c(F)c(F)c(F)c1F)c1cc(C(F)(F)F)cc(C(F)(F)F)c1 [fragment 21, Pentafluorophenyl 3,5-bis(trifluoromethyl)benzoate]
1.0 | COc1cc(CCC(=O)Oc2c(F)c(F)c(F)c(F)c2F)cc(OC)c1OC [fragment 23, Pentafluorophenyl 3-(3,4,5-trimethoxyphenyl)propanoate]
1.1 | Cn1cc(CC(=O)Oc2c(F)c(F)c(F)c(F)c2F)c2ccccc21 [fragment 22, Pentafluorophenyl 2-(1-methyl-1H-indol-3-yl)acetate]
1.4 | O=C(Oc1c(F)c(F)c(F)c(F)c1F)C(c1ccccc1)c1ccccc1 [fragment 20, Pentafluorophenyl 2,2-diphenylacetate]

From patent US20210255193A1, “LYSINE REACTIVE PROBES AND USES THEREOF” (The Scripps Research Institute, priority 2017, published 2021)
